Results published in US20230293526A1, “METHOD FOR TREATING CANCER WITH A REVERSE TRANSCRIPTASE INHIBITOR” (PrimeFour Therapeutics, Inc., priority 2020, published 2023).

Tests used:
human LINE-1 = assay: Human LINE-1 (L1) retrotransposition dual-luciferase reporter assay in HeLa cells; format: cell-based; conditions: Homo sapiens, HeLa, 72 h, read-out: Human LINE-1 IC50 (Human L1 activity inhibition)
Description: Representative compounds were tested for inhibition of retrotransposition activity of human LINE-1 (L1) retrotransposition reporter assay in HeLa cells according to the following procedure.
Human Cervical Adenocarcinoma Cells (HeLa) were cultured in Dulbecco's Modified Eagle's Medium (DMEM) containing 4500 mg/L glucose, L-glutamine, sodium pyruvate and sodium bicarbonate, supplemented with 10% of heat inactivated fetal bovine serum (FBS). Cells were grown at 37° C. in an atmosphere of 5% CO2. The dual luciferase-encoding plasmid pYX017 was provided by Prof Wenfeng An (Xie, et al., 2011, Nucleic Acids Res).
The reporter assay was performed in 96-well white, optical bottom plates (Thermo Fisher, 165306). 24 hours prior to transfection, HeLa cells were seeded in a density of 2,500 cells per well, in 50 μL of DMEM, 10% FBS media volume. Cells were incubated at 37° C. in an atmosphere of 5% CO2. Seeding was optimized to achieve approximately 30% cell confluency on the day of transfection. A transfection mix was prepared by combining transfection reagent FuGENE® HD (Promega, E2311) and plasmid DNA (100 ng per well) in a 3:1 ratio, in OpiMEM media (Thermo Fisher, 31985062). Next, 5 μL of the transfection mix was combined with 20 μL of DMEM, 10% FBS media, and 25 μL of this mix was added into each well of an assay plate. In each assay plate one column remained untransfected to serve as a blank luminescence signal.
Serial dilution of test compounds was performed in DMSO and transferred to medium. Next, 25 μL of media-diluted compounds series were transferred to an assay plate containing cells and transfection media. The final concentration of DMSO in treated wells was 0.2%. Serial dilutions of compounds were added to an assay plate immediately after transfection. Compounds were tested in triplicates. The assay plate was then incubated with transfection reagent and compounds at 37° C. in an atmosphere of 5% CO2 for 72 hours.
Luciferase reporter activity was quantified with the Dual-Luciferase® Reporter Assay System (Promega) following the manufacturer's manual, with a passive lysis buffer volume increased to 30 μL and lysis incubation time increased to 20 min at room temperature with gentle shaking, to ensure complete cell lysis. Luminescence was measured using a SpectraMax i3×Multi-Mode Microplate Reader, with integration times of 100 ms and 10 ms applied to measure FLuc and RLuc signals, respectively. Relative LNE-1 activity was calculated as Firefly signal/Renilla signal*10,000. In order to determine IC50 values for each compound, dose response data were fit to a logistic using non-linear regression.

cancer cell lines = assay: Cancer cell proliferation activity of representative nucleosides, CellTiterGlo 72 h (Example 7, Tables 8 and 9); format: cell-based
In short: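 Cancer cell lines seeded and incubated at 37° C overnight, then exposed to nucleosides (final DMSO 0.1%) for 72 h at 37° C with 5% or 10% CO2. Viability read by CellTiterGlo luminescence and normalized to 0.1% DMSO (100%) and 10 μM staurosporine (0%) controls.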

IC50 (human LINE-1): 0.0011 µM | IC50 (cancer cell lines; 72 h, 5637, 72 h (Table 9)): 2.57 µM | IC50 (cancer cell lines; 72 h, CLS439, 72 h (Table 9)): > 50 µM | IC50 (cancer cell lines; 72 h, HS729, 72 h (Table 9)): 4.24 µM | IC50 (cancer cell lines; 72 h, J82, 72 h (Table 9)): 5.43 µM | IC50 (cancer cell lines; 72 h, JAR, 72 h (Table 9)): 5.41 µM | IC50 (cancer cell lines; 72 h, MT3, 72 h (Table 9)): 2.64 µM | IC50 (cancer cell lines; 72 h, PC3, 72 h (Table 9)): 3.12 µM | IC50 (cancer cell lines; 72 h, RD, 72 h (Table 9)): 3.3 µM | IC50 (cancer cell lines; 72 h, T24, 72 h (Table 9)): 2.68 µM | IC50 (cancer cell lines; Homo sapiens, 22Rv1, 72 h, 22RV1, 72 h (Table 9)): > 50 µM | IC50 (cancer cell lines; Homo sapiens, 786-0, 72 h, 786O, 72 h (Table 9)): 3.31 µM | IC50 (cancer cell lines; Homo sapiens, A204, 72 h, A204, 72 h (Table 9)): 1.46 µM | IC50 (cancer cell lines; Homo sapiens, A549, 72 h, A549, 72 h (Table 9)): 2.98 µM | IC50 (cancer cell lines; Homo sapiens, A673, 72 h, A673, 72 h (Table 9)): 4.57 µM | IC50 (cancer cell lines; Homo sapiens, A2780, 72 h, A2780, 72 h (Table 9)): 4.93 µM | IC50 (cancer cell lines; Homo sapiens, A-375, 72 h, A375, 72 h (Table 9)): 2.69 µM | IC50 (cancer cell lines; Homo sapiens, A-431, 72 h, A431, 72 h (Table 9)): 2.87 µM | IC50 (cancer cell lines; Homo sapiens, ACHN, 72 h, 72 h (Table 9)): 2.48 µM | IC50 (cancer cell lines; Homo sapiens, ASPC1, 72 h, ASPC1, 72 h (Table 9)): 4.97 µM | IC50 (cancer cell lines; Homo sapiens, BT-20, 72 h, BT20, 72 h (Table 9)): 2.79 µM | IC50 (cancer cell lines; Homo sapiens, BXPC-3, 72 h, BXPC3, 72 h (Table 9)): 2.77 µM | IC50 (cancer cell lines; Homo sapiens, C-33-A, 72 h, C33A, 72 h (Table 9)): 2.65 µM | IC50 (cancer cell lines; Homo sapiens, CAKI-1, 72 h, CAKI1, 72 h (Table 9)): 0.69 µM | IC50 (cancer cell lines; Homo sapiens, COLO 205, 72 h, COLO205, 72 h (Table 9)): 4.98 µM | IC50 (cancer cell lines; Homo sapiens, COLO-678, 72 h, COLO678, 72 h (Table 9)): 3.11 µM | IC50 (cancer cell lines; Homo sapiens, Ca-Ski, 72 h, CASKI, 72 h (Table 9)): 5.31 µM | IC50 (cancer cell lines; Homo sapiens, Caco-2, 72 h, CACO2, 72 h (Table 9)): > 50 µM | IC50 (cancer cell lines; Homo sapiens, Calu-6, 72 h, CALU6, 72 h (Table 9)): 5.3 µM | IC50 (cancer cell lines; Homo sapiens, DLD-1, 72 h, DLD1, 72 h (Table 9)): > 50 µM | IC50 (cancer cell lines; Homo sapiens, DU-145, 72 h, DU145, 72 h (Table 9)): 2.53 µM | IC50 (cancer cell lines; Homo sapiens, EFO-21, 72 h, EFO21, 72 h (Table 9)): 4.62 µM | IC50 (cancer cell lines; Homo sapiens, EJ-28, 72 h, EJ28, 72 h (Table 9)): 5.71 µM | IC50 (cancer cell lines; Homo sapiens, Granta-519, 72 h, GRANTA-519, 72 h (Table 9)): 1.68 µM | IC50 (cancer cell lines; Homo sapiens, HCT-15, 72 h, HCT15, 72 h (Table 9)): 5.9 µM | IC50 (cancer cell lines; Homo sapiens, HCT-116, 72 h, HCT116, 72 h (Table 9)): 4.69 µM | IC50 (cancer cell lines; Homo sapiens, HEK293, 72 h, HEK293, 72 h (Table 9)): 4.16 µM | IC50 (cancer cell lines; Homo sapiens, HL-60, 72 h, HL-60, 72 h (Table 9)): 3.49 µM | IC50 (cancer cell lines; Homo sapiens, HT-29, 72 h, HT29, 72 h (Table 9)): 4.63 µM | IC50 (cancer cell lines; Homo sapiens, HT-1080, 72 h, HT1080, 72 h (Table 9)): 3.19 µM | IC50 (cancer cell lines; Homo sapiens, HeLa, 72 h, 72 h (Table 9)): 2.98 µM | IC50 (cancer cell lines; Homo sapiens, HepG2, 72 h, HEPG2, 72 h (Table 9)): 3.14 µM | IC50 (cancer cell lines; Homo sapiens, Hs-578T, 72 h, HS578T, 72 h (Table 9)): 2.94 µM | IC50 (cancer cell lines; Homo sapiens, IGROV-1, 72 h, IGROV1, 72 h (Table 9)): 3.03 µM | IC50 (cancer cell lines; Homo sapiens, IMR-90, 72 h, IMR90, 72 h (Table 9)): 2.46 µM | IC50 (cancer cell lines; Homo sapiens, JEG-3, 72 h, JEG3, 72 h (Table 9)): 3.95 µM | IC50 (cancer cell lines; Homo sapiens, JIMT-1, 72 h, JIMT1, 72 h (Table 9)): 1.58 µM | IC50 (cancer cell lines; Homo sapiens, K562, 72 h, K-562, 72 h (Table 9)): 4.46 µM | IC50 (cancer cell lines; Homo sapiens, Kasumi 1, 72 h, KASUMI-1, 72 h (Table 9)): 0.96 µM | IC50 (cancer cell lines; Homo sapiens, L-363, 72 h, L-363, 72 h (Table 9)): 3.21 µM | IC50 (cancer cell lines; Homo sapiens, LoVo, 72 h, 72 h (Table 9)): 2.79 µM | IC50 (cancer cell lines; Homo sapiens, MCF7, 72 h, MCF7, 72 h (Table 9)): > 50 µM | IC50 (cancer cell lines; Homo sapiens, MDA-MB-231, 72 h, MDAMB231, 72 h (Table 9)): 2.56 µM | IC50 (cancer cell lines; Homo sapiens, MDA-MB-435, 72 h, MDAMB435, 72 h (Table 9)): > 50 µM | IC50 (cancer cell lines; Homo sapiens, MDA-MB-436, 72 h, MDAMB436, 72 h (Table 9)): 3.59 µM | IC50 (cancer cell lines; Homo sapiens, MDA-MB-468, 72 h, MDAMB468, 72 h (Table 9)): 4 µM | IC50 (cancer cell lines; Homo sapiens, MG-63, 72 h, MG63, 72 h (Table 9)): > 50 µM | IC50 (cancer cell lines; Homo sapiens, MHH-ES-1, 72 h, MHHES1, 72 h (Table 9)): 3.51 µM | IC50 (cancer cell lines; Homo sapiens, MIA PaCa-2, 72 h, MIAPACA2, 72 h (Table 9)): > 50 µM | IC50 (cancer cell lines; Homo sapiens, MINO, 72 h, 72 h (Table 9)): 1.34 µM | IC50 (cancer cell lines; Homo sapiens, MV4-11, 72 h, MV4-11, 72 h (Table 9)): 2.39 µM | IC50 (cancer cell lines; Homo sapiens, NCI-H23, 72 h, NCI-H23, 72 h (Table 9)): 2.96 µM | IC50 (cancer cell lines; Homo sapiens, NCI-H82, 72 h, NCIH82, 72 h (Table 9)): 2.73 µM | IC50 (cancer cell lines; Homo sapiens, NCI-H292, 72 h, NCIH292, 72 h (Table 9)): 3.68 µM | IC50 (cancer cell lines; Homo sapiens, NCI-H460, 72 h, NCIH460, 72 h (Table 9)): 3.31 µM | IC50 (cancer cell lines; Homo sapiens, OVCAR-3, 72 h, OVCAR3, 72 h (Table 9)): 4.15 µM | IC50 (cancer cell lines; Homo sapiens, OVCAR-4, 72 h, OVCAR4, 72 h (Table 9)): 3.1 µM | IC50 (cancer cell lines; Homo sapiens, PANC-1, 72 h, PANC1, 72 h (Table 9)): > 50 µM | IC50 (cancer cell lines; Homo sapiens, PLC-PRF-5, 72 h, PLCPRF5, 72 h (Table 9)): > 50 µM | IC50 (cancer cell lines; Homo sapiens, Panc1005, 72 h, PANC1005, 72 h (Table 9)): 3.87 µM | IC50 (cancer cell lines; Homo sapiens, Ramos, 72 h, 72 h (Table 9)): 1.88 µM | IC50 (cancer cell lines; Homo sapiens, SAOS-2, 72 h, SAOS2, 72 h (Table 9)): 1.65 µM | IC50 (cancer cell lines; Homo sapiens, SF-268, 72 h, SF268, 72 h (Table 9)): > 50 µM | IC50 (cancer cell lines; Homo sapiens, SF-295, 72 h, SF295, 72 h (Table 9)): 2.91 µM | IC50 (cancer cell lines; Homo sapiens, SK-BR-3, 72 h, SKBR3, 72 h (Table 9)): 1.76 µM | IC50 (cancer cell lines; Homo sapiens, SK-HEP1, 72 h, SKHEP1, 72 h (Table 9)): 2.66 µM | IC50 (cancer cell lines; Homo sapiens, SK-LMS-1, 72 h, SKLMS1, 72 h (Table 9)): 3.35 µM | IC50 (cancer cell lines; Homo sapiens, SK-MEL-5, 72 h, SKMEL5, 72 h (Table 9)): 6.02 µM | IC50 (cancer cell lines; Homo sapiens, SK-MEL-28, 72 h, SKMEL28, 72 h (Table 9)): 3.84 µM | IC50 (cancer cell lines; Homo sapiens, SK-N-AS, 72 h, SKNAS, 72 h (Table 9)): 2.98 µM | IC50 (cancer cell lines; Homo sapiens, SK-N-SH, 72 h, SKNSH, 72 h (Table 9)): 3.37 µM | IC50 (cancer cell lines; Homo sapiens, SK-OV-3, 72 h, SKOV3, 72 h (Table 9)): 3.25 µM | IC50 (cancer cell lines; Homo sapiens, SNB-75, 72 h, SNB75, 72 h (Table 9)): 3.27 µM | IC50 (cancer cell lines; Homo sapiens, SU-DHL10, 72 h, SU-DHL-10, 72 h (Table 9)): 2.6 µM | IC50 (cancer cell lines; Homo sapiens, SU-DHL-6, 72 h, SU-DHL-6, 72 h (Table 9)): 1.68 µM | IC50 (cancer cell lines; Homo sapiens, SW-620, 72 h, SW620, 72 h (Table 9)): 3.81 µM | IC50 (cancer cell lines; Homo sapiens, TE-671, 72 h, TE671, 72 h (Table 9)): > 50 µM | IC50 (cancer cell lines; Homo sapiens, THP-1, 72 h, THP-1, 72 h (Table 9)): 2.93 µM | IC50 (cancer cell lines; Homo sapiens, U2OS, 72 h, 72 h (Table 9)): 2.53 µM | IC50 (cancer cell lines; Homo sapiens, U-87 MG, 72 h, U87MG, 72 h (Table 9)): 2.75 µM | IC50 (cancer cell lines; Homo sapiens, UMUC3, 72 h, UMUC3, 72 h (Table 9)): 3.53 µM | IC50 (cancer cell lines; Homo sapiens, UO-31, 72 h, UO31, 72 h (Table 9)): 4.71 µM | IC50 (cancer cell lines; Homo sapiens, WSU-NHL, 72 h, 72 h (Table 9)): 3.17 µM | IC50 (cancer cell lines; NCI-H358M, 72 h, NCIH358M, 72 h (Table 9)): 0.73 µM | IC50 (cancer cell lines; PBMC, 72 h, 72 h (Table 9)): > 50 µM | IC50 (cancer cell lines; RD-ES, 72 h, RDES, 72 h (Table 9)): 3.01 µM
SMILES: C#C[C@]1(CO)O[C@@H](n2cnc3c(N)nc(F)nc32)C[C@@H]1O [Islatravir (EFdA), Islatravir, reference compound]
